The text below walks through data of publication PMC4436063 (mBio, 2015).

Structures are written as SMILES.

The experiment deals with CheS3. Briefly: microscale thermophoresis. Format: binding, Rhodospirillum centenum. The following applies: fluorescently labelled CheS3 (Blue-NHS, 100 nM); non-hydrolysable ATP analogue.

Usually Kd stands for a measure of binding affinity in units of concentration. Low values mean higher affinity, high ones lower affinity. `Nc1ncnc2c1ncn2[C@@H]1O[C@H](COP(=O)(O)OP(=O)(O)OP(O)(O)=S)[C@@H](O)[C@H]1O` [ATPγS] gave a Kd of 112 nM.
